± gives the expanded uncertainty stated by the source.
Assay: molar heat capacity at constant pressure
Details: 101 kPa, Liquid, Small sample (50 mg) DSC

In the case of `CN1CCN(C)CC1` [1,4-dimethylpiperazine], the “molar heat capacity at constant pressure” value (298.15 K) is reported as 216.5 ± 3.7 J/K/mol, the “molar heat capacity at constant pressure” value (303.15 K) is reported as 221.7 ± 3.7 J/K/mol and the “molar heat capacity at constant pressure” value (308.15 K) is reported as 222.1 ± 3.7 J/K/mol. The “molar heat capacity at constant pressure” value (313.15 K) was 223.4 ± 3.7 J/K/mol, the “molar heat capacity at constant pressure” value (318.15 K) was 224.6 ± 3.8 J/K/mol and the “molar heat capacity at constant pressure” value (323.15 K) was 225.3 ± 3.8 J/K/mol. For the same compound, the “molar heat capacity at constant pressure” value (328.15 K) was 225.7 ± 3.8 J/K/mol, the “molar heat capacity at constant pressure” value (333.15 K) was 227.5 ± 3.8 J/K/mol and the “molar heat capacity at constant pressure” value (338.15 K) was 228.5 ± 3.8 J/K/mol. The “molar heat capacity at constant pressure” value (343.15 K) was 229.6 ± 3.8 J/K/mol, the “molar heat capacity at constant pressure” value (348.15 K) was 231.7 ± 3.8 J/K/mol and the “molar heat capacity at constant pressure” value (353.15 K) was 235.9 ± 3.9 J/K/mol.
With `OCCN1CCOCC1` [4-morpholineethanol] the “molar heat capacity at constant pressure” value (298.15 K) was 263.9 ± 4.2 J/K/mol, the “molar heat capacity at constant pressure” value (303.15 K) was 265.3 ± 4.3 J/K/mol and the “molar heat capacity at constant pressure” value (308.15 K) was 267.1 ± 4.3 J/K/mol. The “molar heat capacity at constant pressure” value (313.15 K) was 269.2 ± 4.3 J/K/mol, the “molar heat capacity at constant pressure” value (318.15 K) was 270.8 ± 4.3 J/K/mol and the “molar heat capacity at constant pressure” value (323.15 K) was 272.6 ± 4.3 J/K/mol. The “molar heat capacity at constant pressure” value (328.15 K) was 274.3 ± 4.4 J/K/mol, the “molar heat capacity at constant pressure” value (333.15 K) was 276.2 ± 4.4 J/K/mol and the “molar heat capacity at constant pressure” value (338.15 K) was 278.7 ± 4.4 J/K/mol. The “molar heat capacity at constant pressure” value (343.15 K) was 281 ± 4.4 J/K/mol, the “molar heat capacity at constant pressure” value (348.15 K) was 283.2 ± 4.5 J/K/mol and the “molar heat capacity at constant pressure” value (353.15 K) was 284.9 ± 4.5 J/K/mol.
With `OCCN1CCNCC1` [N-(2-hydroxyethyl)piperazine] the “molar heat capacity at constant pressure” value (298.15 K) was 285 ± 4.5 J/K/mol, the “molar heat capacity at constant pressure” value (303.15 K) was 289.9 ± 4.6 J/K/mol and the “molar heat capacity at constant pressure” value (308.15 K) was 292.9 ± 4.6 J/K/mol. For the same compound, the “molar heat capacity at constant pressure” value (313.15 K) was 296 ± 4.6 J/K/mol, the “molar heat capacity at constant pressure” value (318.15 K) was 298.9 ± 4.7 J/K/mol and the “molar heat capacity at constant pressure” value (323.15 K) was 301.7 ± 4.7 J/K/mol. The “molar heat capacity at constant pressure” value (328.15 K) was 305 ± 4.8 J/K/mol, the “molar heat capacity at constant pressure” value (333.15 K) was 308.1 ± 4.8 J/K/mol and the “molar heat capacity at constant pressure” value (338.15 K) was 311 ± 4.8 J/K/mol. For the same compound, the “molar heat capacity at constant pressure” value (343.15 K) was 313.9 ± 4.9 J/K/mol, the “molar heat capacity at constant pressure” value (348.15 K) was 316.5 ± 4.9 J/K/mol and the “molar heat capacity at constant pressure” value (353.15 K) was 319 ± 4.9 J/K/mol.
In the case of `NCCCN1CCOCC1` [N-(3-aminopropyl)morpholine], the “molar heat capacity at constant pressure” value (298.15 K) is reported as 296.2 ± 4.6 J/K/mol, the “molar heat capacity at constant pressure” value (303.15 K) is reported as 298.2 ± 4.7 J/K/mol and the “molar heat capacity at constant pressure” value (308.15 K) is reported as 299.6 ± 4.7 J/K/mol. For the same compound, the “molar heat capacity at constant pressure” value (313.15 K) was 301.2 ± 4.7 J/K/mol, the “molar heat capacity at constant pressure” value (318.15 K) was 302.8 ± 4.7 J/K/mol and the “molar heat capacity at constant pressure” value (323.15 K) was 304.5 ± 4.7 J/K/mol. For the same compound, the “molar heat capacity at constant pressure” value (328.15 K) was 306.1 ± 4.8 J/K/mol, the “molar heat capacity at constant pressure” value (333.15 K) was 307.9 ± 4.8 J/K/mol and the “molar heat capacity at constant pressure” value (338.15 K) was 309.6 ± 4.8 J/K/mol. The “molar heat capacity at constant pressure” value (343.15 K) was 311.3 ± 4.8 J/K/mol, the “molar heat capacity at constant pressure” value (348.15 K) was 312.7 ± 4.9 J/K/mol and the “molar heat capacity at constant pressure” value (353.15 K) was 313.4 ± 4.9 J/K/mol.
In the case of `CN1CCNCC1` [N-methylpiperazine], the “molar heat capacity at constant pressure” value (298.15 K) is reported as 213.9 ± 3.6 J/K/mol, the “molar heat capacity at constant pressure” value (303.15 K) is reported as 214.4 ± 3.6 J/K/mol and the “molar heat capacity at constant pressure” value (308.15 K) is reported as 215 ± 3.6 J/K/mol. The “molar heat capacity at constant pressure” value (313.15 K) was 215.7 ± 3.6 J/K/mol, the “molar heat capacity at constant pressure” value (318.15 K) was 216.4 ± 3.7 J/K/mol and the “molar heat capacity at constant pressure” value (323.15 K) was 216.9 ± 3.7 J/K/mol. The “molar heat capacity at constant pressure” value (328.15 K) was 217.3 ± 3.7 J/K/mol, the “molar heat capacity at constant pressure” value (333.15 K) was 217.2 ± 3.7 J/K/mol and the “molar heat capacity at constant pressure” value (338.15 K) was 215.5 ± 3.6 J/K/mol. The “molar heat capacity at constant pressure” value (343.15 K) was 216.2 ± 3.7 J/K/mol, the “molar heat capacity at constant pressure” value (348.15 K) was 217.6 ± 3.7 J/K/mol and the “molar heat capacity at constant pressure” value (353.15 K) was 218 ± 3.7 J/K/mol.

— the NIST ThermoML archive (doi:10.1021/je400178k)
